In patent US10457709B2, “Antimicrobial peptides, their variants and uses” (priority 2015, dated 2019):
Read-outs that look alike come from different tables or passages of the source.

Key:
Assay type in all cases: cell-based
[1] = system: Streptococcus pneumoniae clinical strains; design: Minimum inhibitory concentration: unit: μg/ml; details: microdilution, Muller Hinton broth-cation adjusted, 0.02% BSA, 0.2% acetic acid
Summary of the method: (§1)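 MIC recorded as the lowest peptide level, within 0.125–128 μg/ml, that left no visible growth after 20–24 h at 37° C. Inoculum was 5.0×10^5 cfu/ml of clinical isolates. Medium was potato dextrose broth for yeasts and Mueller Hinton broth for bacteria, in a broth microdilution format.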

[2] = system: Serratia marcescens clinical strains; design: Minimum inhibitory concentration: unit: μg/ml; details: microdilution, Muller Hinton broth-cation adjusted, 0.02% BSA, 0.2% acetic acid
Summary of the method: as §1

[3] = system: Enterobacter cloacae clinical strains; design: Minimum inhibitory concentration: unit: μg/ml; details: microdilution, Muller Hinton broth-cation adjusted, 0.02% BSA, 0.2% acetic acid
Summary of the method: as §1

[4] = system: Staphylococcus aureus clinical strains; design: Minimum inhibitory concentration: unit: μg/ml; details: microdilution, Muller Hinton broth-cation adjusted, 0.02% BSA, 0.2% acetic acid
Summary of the method: as §1

[5] = system: Acinetobacter baumannii clinical strains; design: Minimum inhibitory concentration: unit: μg/ml; details: microdilution, Muller Hinton broth-cation adjusted, 0.02% BSA, 0.2% acetic acid
Summary of the method: as §1

[6] = system: Proteus mirabilis clinical strains; design: Minimum inhibitory concentration: unit: μg/ml; details: microdilution, Muller Hinton broth-cation adjusted, 0.02% BSA, 0.2% acetic acid
Summary of the method: as §1

[7] = system: Escherichia coli clinical strains; details: microdilution, Muller Hinton broth-cation adjusted, 0.02% BSA, 0.2% acetic acid
Summary of the method: as §1

[8] = system: Klebsiella pneumoniae clinical strains; details: microdilution, Muller Hinton broth-cation adjusted, 0.02% BSA, 0.2% acetic acid
Summary of the method: as §1

[9] = system: Acinetobacter johnsonii clinical strains; details: Acinetobacter johnsonii clinical strain 1; microdilution, Muller Hinton broth-cation adjusted, 0.02% BSA, 0.2% acetic acid
Summary of the method: as §1

[10] = system: Pseudomonas aeruginosa clinical strains; details: microdilution, Muller Hinton broth-cation adjusted, 0.02% BSA, 0.2% acetic acid
Summary of the method: as §1

[11] = system: Staphylococcus aureus (ATCC 25923); assay: microbe, parasite or virus in culture
Summary of the method: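 Broth microdilution in Mueller-Hinton broth at 5.0×10^5 cfu/ml, peptides tested from 0.125 to 128 μg/ml in polypropylene plates.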

Gentamicin [reference compound]
8: Minimum inhibitory concentration ([6]; Proteus mirabilis clinical strain 4)
0.5: Minimum inhibitory concentration ([4]; Staphylococcus aureus clinical strain 1) | Minimum inhibitory concentration ([4]; Staphylococcus aureus clinical strain 2) | Minimum inhibitory concentration ([4]; Staphylococcus aureus clinical strain 3) | Minimum inhibitory concentration ([4]; Staphylococcus aureus clinical strain 4) | Minimum inhibitory concentration ([4]; Staphylococcus aureus clinical strain 5) | Minimum inhibitory concentration ([5]; Acinetobacter baumannii clinical strain 1) | Minimum inhibitory concentration ([5]; Acinetobacter baumannii clinical strain 3) | Minimum inhibitory concentration ([5]; Acinetobacter baumannii clinical strain 4) | Minimum inhibitory concentration ([7]; Escherichia coli clinical strain 1) | Minimum inhibitory concentration ([7]; Escherichia coli clinical strain 2) | Minimum inhibitory concentration ([10]; Pseudomonas aeruginosa clinical strain 2) | Minimum inhibitory concentration ([10]; Pseudomonas aeruginosa clinical strain 3) | Minimum inhibitory concentration ([10]; Pseudomonas aeruginosa clinical strain 4)
1: Minimum inhibitory concentration ([1]; Streptococcus pneumoniae clinical strain 5) | Minimum inhibitory concentration ([2]; Serratia marcescens clinical strain 1) | Minimum inhibitory concentration ([2]; Serratia marcescens clinical strain 3) | Minimum inhibitory concentration ([2]; Serratia marcescens clinical strain 4) | Minimum inhibitory concentration ([2]; Serratia marcescens clinical strain 5) | Minimum inhibitory concentration ([7]; Escherichia coli clinical strain 3) | Minimum inhibitory concentration ([7]; Escherichia coli clinical strain 4) | Minimum inhibitory concentration ([7]; Escherichia coli clinical strain 5) | Minimum inhibitory concentration ([10]; Pseudomonas aeruginosa clinical strain 1)
0.25: Minimum inhibitory concentration ([3]; Enterobacter cloacae clinical strain 1) | Minimum inhibitory concentration ([3]; Enterobacter cloacae clinical strain 2) | Minimum inhibitory concentration ([3]; Enterobacter cloacae clinical strain 3) | Minimum inhibitory concentration ([3]; Enterobacter cloacae clinical strain 4) | Minimum inhibitory concentration ([3]; Enterobacter cloacae clinical strain 5) | Minimum inhibitory concentration ([5]; Acinetobacter baumannii clinical strain 2) | Minimum inhibitory concentration ([5]; Acinetobacter baumannii clinical strain 5) | Minimum inhibitory concentration ([8]; Klebsiella pneumoniae clinical strain 2) | Minimum inhibitory concentration [9] | Minimum inhibitory concentration ([10]; Pseudomonas aeruginosa clinical strain 5)
0.25 µg/mL: Minimum inhibitory concentration, Staphylococcus aureus (ATCC 25923) [11]
2: Minimum inhibitory concentration ([1]; Streptococcus pneumoniae clinical strain 1) | Minimum inhibitory concentration ([1]; Streptococcus pneumoniae clinical strain 2) | Minimum inhibitory concentration ([1]; Streptococcus pneumoniae clinical strain 3) | Minimum inhibitory concentration ([1]; Streptococcus pneumoniae clinical strain 4) | Minimum inhibitory concentration ([2]; Serratia marcescens clinical strain 2) | Minimum inhibitory concentration ([6]; Proteus mirabilis clinical strain 1) | Minimum inhibitory concentration ([6]; Proteus mirabilis clinical strain 2) | Minimum inhibitory concentration ([8]; Klebsiella pneumoniae clinical strain 1) | Minimum inhibitory concentration ([8]; Klebsiella pneumoniae clinical strain 3) | Minimum inhibitory concentration ([8]; Klebsiella pneumoniae clinical strain 4)
>128: Minimum inhibitory concentration ([6]; Proteus mirabilis clinical strain 3) | Minimum inhibitory concentration ([6]; Proteus mirabilis clinical strain 5)
4: Minimum inhibitory concentration ([8]; Klebsiella pneumoniae clinical strain 5)
